Data published in patent EP0679081B1, “PHARMACEUTICAL COMPOSITIONS FOR PREVENTION AND TREATMENT OF CANCEROUS DISEASE AND PROCESS FOR THEIR PREPARATION” (priority 1993, dated 1995).

Tested on: Sp2/0-Ag14 mouse myeloma cells
Assay: Effect on number of viable Sp2/0-Ag14 cells in culture (trypan blue dye exclusion count)
Conditions: for number of cells as compared to the number of untreated cells: substance used alone, statement in words
Method: In the experiments the newest methods approved by the scientific literature were used. In case of Sp2/0-Ag14 and K562 lines, the logarithmically growing cells were harvested from the medium and resuspended in a 96-well plate used for cell culture to a final concentration of 4x10^4 Sp2/0-Ag14 cells and 2x10^4 K562 cells, respectively, in 250 µl appropriate medium per well containing the tested materials in the indicated concentrations. In case of HeLa, HEp-2 and Vero cells, the cultured cells were harvested from 75 % confluent tissue culture flasks with 0.2 % trypsin and resuspended in the appropriate medium at a density of 10^5 cells/ml. Aliquots (100 µl) were dispensed into 96-well micro plates and incubated for 24 hours. Then the medium was discarded and replaced with 250 µl fresh medium containing the tested compounds in the indicated concentrations. All kinds of cells were allowed to proliferate for 48 hours. The number of viable Sp2/0-Ag14 and K562 cells was then counted microscopically with the trypan blue dye exclusion method. The survival of HeLa, HEp-2 and Vero cells was measured by assessing the endogenous alkaline phosphatase activity of the cells. Results were evaluated using Student's t-test. Data after the mean values in the Tables and signs in the Figures mean: "standard error of mean" (SEM).
In case of L-tryptophan for example the 2-4th control experiments show the effects of 0.002; 0.006; and 0.01 % by mass, resp., of L-tryptophan alone on the number of cells.
In Table 2 the amounts of materials expressed in % by mass and multiplied by 1000 are shown, thus the numbers in the Table should read by multiplying with 10^-3; for example in Example 21 in case of L-tryptophan the number 6 means 6 x 10^-3, that is 0.006 % by mass. The conditions of the experiments were the same as before.
To help the comparability with the earlier results Sp2/0-Ag14 cells were also used and the experimental conditions were the same as before. On the vertical axis the changes of the amounts of cells expressed in the percentage of the amounts of untreated cells are shown. On the horizontal axis the changes expressed in % of the compositions (changes of the amounts of the active ingredients) are shown. […] Thus, the 80 % composition of Example 99 contains every component in an amount of 80 %.
The composition of the control mixtures was given in connection with Table 1.
As a function of time the effect of the 100 % composition of Example 103 on Sp2/0-Ag14 cells was investigated and compared to the 100 % control mixture and to untreated cells. The experimental conditions were the same as in the previous experiments except that in this case the cells were counted not only after 48 hr but also after 6; 12; 24; and 36 hr. On the vertical axis the cell number/ml is shown. On the horizontal axis the time is shown in hours.

[1] = Table 1, number of cells after 48 hr incubation, mean ± SEM, untreated cells 59.1 ±3.2
[2] = Table 2 (first part), 48 hr, untreated cells = 100 %, mean ± SEM
[3] = Table 2 (first part), number of cells after 48 hr, mean ± SEM, untreated cells 74.3 ± 3.9
[4] = Table 2 (second part), number of cells after 48 hr, mean ± SEM, untreated cells 74.3 ± 3.9

Structure (SMILES) | CHANGE OF THE NUMBER OF CELLS (x 10^4) [1] | IN% OF THE UNTREATED CELLS (mouse, sp2/0-ag14 cells, 48 h) [%] | IN % OF THE UN-TREATED CELLS (mouse, sp2/0-ag14 cells, 48 h) [%] | other results
N[C@@H](Cc1c[nH]c2ccccc12)C(=O)O [Control 2, L-tryptophan] | 61.7±3.0 x 10^4 | 104.4±5.0 |  | 
N[C@@H](Cc1c[nH]c2ccccc12)C(=O)O [Control 3, L-tryptophan] | 62.6±2.0 x 10^4 | 106.0±3.4 |  | 
N[C@@H](Cc1c[nH]c2ccccc12)C(=O)O [Control 4, L-tryptophan] | 63.0±3.4 x 10^4 | 106.6±5.8 |  | 
O=CC[C@H](O)[C@H](O)CO [Control 6, 2-deoxy-D-ribose] | 59.3±2.3 x 10^4 |  |  | 
O=CC[C@H](O)[C@H](O)CO [Control 7, 2-deoxy-D-ribose] | 59.8±1.2 x 10^4 | 101.1±2.2 |  | 
O=CC[C@H](O)[C@H](O)CO [Control 8, 2-deoxy-D-ribose] | 59.0 ±3.2 x 10^4 | 99.9 ±5.9 |  | 
Nc1ncnc2nc[nH]c12 [Control 10, adenine] | 60.5±1.4 x 10^4 | 102.4±2.5 |  | 
Nc1ncnc2nc[nH]c12 [Control 11, adenine] | 58.2 ±1.8 x 10^4 | 98.5 ±3.2 |  | 
Nc1ncnc2nc[nH]c12 [Control 12, adenine] | 58.6 ± 1.5 x 10^4 | 99.1 ± 2.8 |  | 
O=C(O)CC(O)C(=O)O (stereo not shown) [Control 14, malic acid] | 58.7 ± 2.1 x 10^4 | 99.3±3.7 |  | 
O=C(O)CC(O)C(=O)O (stereo not shown) [Control 15, malic acid] | 60.4 ± 1.7 x 10^4 | 102.2 ± 3.0 |  | 
O=C(O)CC(O)C(=O)O (stereo not shown) [Control 16, malic acid] | 58.8±2.5 x 10^4 | 99.5±4.5 |  | 
O=C1O[C@H]([C@@H](O)CO)C(O)=C1O [Control 18, L-ascorbic acid] | 58.2±1.4 x 10^4 | 98.5 ±2.5 |  | 
O=C1O[C@H]([C@@H](O)CO)C(O)=C1O [Control 19, L-ascorbic acid] | 56.7±2.1 x 10^4 | 96.0±3.7 |  | 
O=C1O[C@H]([C@@H](O)CO)C(O)=C1O [Control 20, L-ascorbic acid] | 56.3 ±2.6 x 10^4 | 95.2 ±4.8 |  | 
N[C@@H](Cc1ccccc1)C(=O)O [Control 22, L-phenylalanine] |  |  |  | IN % OF THE UN-TREATED CELLS [2]: 109.4 ± 4.0%; CHANGE OF THE NUMBER OF CELLS (x 10^4) [3]: 81.3 ± 3.0 x 10^4; number of cells as compared to the number of untreated cells (48 hr): slightly increased
N=C(N)NCCC[C@H](N)C(=O)O [Control 23, L-arginine] |  |  |  | IN % OF THE UN-TREATED CELLS [2]: 103.4 ± 1.8%; CHANGE OF THE NUMBER OF CELLS (x 10^4) [3]: 76.8 ± 1.3 x 10^4; number of cells as compared to the number of untreated cells (48 hr): slightly increased
N[C@@H](Cc1c[nH]cn1)C(=O)O [Control 24, L-histidine] |  |  | 108.7 ± 2.7 | CHANGE OF THE NUMBER OF CELLS (x 10^4) [3]: 80.7 ± 2.0 x 10^4; number of cells as compared to the number of untreated cells (48 hr): slightly increased
O=C(O)CCCC[C@@H]1SC[C@@H]2NC(=O)N[C@@H]21 [Control 25, d-biotin] |  |  | 99.9 ± 3.1 | CHANGE OF THE NUMBER OF CELLS (x 10^4) [3]: 74.2 ± 2.3 x 10^4
Cc1ncc(CO)c(CO)c1O [Control 26, pyridoxine] |  |  | 91.0 ± 2.1 | CHANGE OF THE NUMBER OF CELLS (x 10^4) [3]: 67.6 ± 1.6 x 10^4
CSCC[C@H](N)C(=O)O [Control 27, L-methionine] |  |  | 98.7 ± 3.6 | CHANGE OF THE NUMBER OF CELLS (x 10^4) [3]: 73.3 ± 2.7 x 10^4
N[C@@H](Cc1ccc(O)cc1)C(=O)O [Control 28, L-tyrosine] |  |  |  | IN % OF THE UN-TREATED CELLS [2]: 94.9 ± 1.5%; CHANGE OF THE NUMBER OF CELLS (x 10^4) [3]: 70.5 ± 1.1 x 10^4
Cc1cc2nc3c(=O)[nH]c(=O)nc-3n(C[C@H](O)[C@H](O)[C@H](O)CO)c2cc1C [Control 29, riboflavin] |  |  | 103.5 ± 2.2 | CHANGE OF THE NUMBER OF CELLS (x 10^4) [3]: 76.9 ± 1.7 x 10^4; number of cells as compared to the number of untreated cells (48 hr): slightly increased
O=C[C@@H](O)[C@@H](O)[C@H](O)[C@H](O)CO [Control 30, D-mannose] |  |  | 98.4 ± 1.5 | CHANGE OF THE NUMBER OF CELLS (x 10^4) [4]: 73.1 ± 1.1 x 10^4
O=C(O)CNC(=O)c1ccccc1 [Control 31, N-benzoylglycine] |  |  | 99.8 ± 2.1 | CHANGE OF THE NUMBER OF CELLS (x 10^4) [4]: 74.2 ± 1.6 x 10^4
Cc1cc2nc3c(=O)[nH]c(=O)nc-3n(C[C@H](O)[C@H](O)[C@H](O)COP(=O)(O)O)c2cc1C [Control 32, riboflavin-5'-phosphate] |  |  | 98.9 ± 1.8 | CHANGE OF THE NUMBER OF CELLS (x 10^4) [4]: 73.5 ± 1.3 x 10^4
O=C(O)c1cc(=O)[nH]c(=O)[nH]1 [Control 33, orotic acid] |  |  | 94.2 ± 1.7 | CHANGE OF THE NUMBER OF CELLS (x 10^4) [4]: 70.0 ± 1.3 x 10^4
N[C@@H](Cc1c[nH]c2ccccc12)C(=O)O [L-tryptophan] |  |  |  | number of cells as compared to the number of untreated cells (48 hr): increased slightly
